Results filed as inconclusive are left out. Active and inactive are the calls of the source. How the calls were made is not given here.
Test system: Mycobacterium tuberculosis non-replicating, growth inhibition
Assay: growth inhibition of non-replicating M. tuberculosis (AID 488890)

| Compound | IC50 |
| --- | --- |
| C/C(=N\NC(=O)c1ccccc1O)C1C(=O)c2ccccc2C1=O | 0.64 µM |
| CC(NC(=O)c1cccc(F)c1)C1CC2CCC1C2 (stereo not given) | 0.16 µM |
| CCC(C)(C)NC(=O)c1ccc(Br)o1 | 18.6 µM (inactive) |
| CCOC(=O)Cn1cc(C#N)c2cccc(CC)c21 | 9.18 µM |
| S=C(Nc1ccc2c(c1)OCO2)Nc1ccc2c(c1)OCO2 | 12.8 µM (inactive) |
| O=Cc1coc2ccc3ccccc3c2c1=O | 16.3 µM (inactive) |
| COC(=O)C1=C(C)N(CC2CC2)C(=NCc2cccc(Cl)c2)N[C@H]1c1ccccc1 | 10.5 µM (inactive) |
| Cc1ccc(C(=O)N/N=C/C=C/c2ccccc2)cc1 | 3.77 µM |
| CC(C)(C)OC(=O)NNc1c2ccccc2nc2ccccc12 | 4.09 µM |
| CCOc1ccc(C(=O)Nc2nc3ccccc3[nH]2)cc1OCC | 9.11 µM |
| On1onc2c3cc(-c4ccccc4)nc3ccc21 | 0.31 µM |
| CCc1ccc(N2CCN(CCNC(=O)Nc3ccc(OC)cc3)CC2)cc1 | 17.7 µM (inactive) |
| CCOC(=O)C(C)(C)n1nnc(-c2ccc([N+](=O)[O-])cc2)n1 | 14.3 µM (inactive) |
| O=C(N/N=C/c1cc([N+](=O)[O-])ccc1O)C12CC3CC(CC(C3)C1)C2 | 1.15 µM |
| CCCCCOc1ccc(CSC2=NCCN2)cc1[N+](=O)[O-] | 23.4 µM (inactive) |
| CC(=O)Oc1ccc(/C=C2\N=C(C3CCCCC3)OC2=O)cc1 | 9.08 µM |
| Cc1cc(O)c(-c2cc(O)c(C)cc2O)cc1O | 2.52 µM |
| CCCn1nnnc1NCc1ccc(C(C)C)cc1 | 5.89 µM |
| O=C(N/N=C/c1ccccn1)c1cc([N+](=O)[O-])cc([N+](=O)[O-])c1 | 9.98 µM |
| CCCCn1c(=O)c(C(=O)Nc2ncccc2C)c(O)c2ccccc21 | 3.81 µM |
| CCOC(=O)COc1ccc2c(c1)C(=O)CC1(CCCCC1)O2 | 0.6 µM |
| COc1ccccc1C(=O)OCC(=O)Nc1ccc(Cl)cn1 | 16.2 µM (inactive) |
| Cc1[nH]n(-c2ccc(Cl)cc2)c(=O)c1N=Nc1cccnc1 | 1.37 µM |

| Compound | IC50 |
| --- | --- |
| CC1(C)OC(c2ccccc2)=C/C(=C\C=N\NC(=O)c2ccncc2)O1 | 1.75 µM |
| CCOC(=O)C1CCCN(Cc2ccc(OCc3ccccc3)cc2)C1 (stereo not given) | 21.8 µM (inactive) |
| CCOC(=O)c1c(C)n(C)c2ccc(OC(C)C(=O)OC)cc12 (stereo not given) | 14.2 µM (inactive) |
| O=C(Nc1ccc(Cl)cn1)C1COc2ccccc2O1 (stereo not given) | 3.32 µM |
| O=C(COC(=O)c1ccc(Br)o1)NC1CCCCC1 | 9.79 µM |
| CC(C)c1ccc(OCC(=O)NNC(=O)c2cnccn2)cc1 | 11.9 µM (inactive) |
| NC(=O)C1(N2CCCCC2)CCN(C2CC(=O)N(CCc3ccccc3)C2=O)CC1 (stereo not given) | 13 µM (inactive) |
| Cc1noc(C)c1COc1ccc(C(=O)Nc2ccccn2)cc1 | 24.6 µM (inactive) |
| Cc1nnc(C)n1/N=C/c1cc(Br)cc(Br)c1O | 11.3 µM (inactive) |
| CC(=O)Nc1nc2ccccc2n1CCOc1ccccc1Cl | 5.37 µM |
| CCOC(=O)C1CCN(C(=O)COc2cc(C)c(Br)c(C)c2)CC1 | 18.3 µM (inactive) |
| Cc1cc(Cl)cc(C)c1OCCCCn1ccnc1 | 16.9 µM (inactive) |
| O=C1CCC/C(=N/Nc2ccc(Cl)cc2)C1 | 3.72 µM |
| CCC/C(=N\NC(=O)c1ccco1)c1ccc(Cl)s1 | 9.41 µM |
| O=[N+]([O-])c1ccc(CN2CCN(c3ccc(Cl)cc3)CC2)o1 | < 0.1 µM |
| CCOC(=O)CCSc1n[nH]c(=S)s1 | 11.7 µM (inactive) |
| O=[N+]([O-])c1cncc([N+](=O)[O-])c1Nc1cccc(O)c1 | 22.3 µM (inactive) |
| CCc1ccc(C2=C/C(=C/c3cccnc3)C(=O)O2)cc1 | 21.2 µM (inactive) |
| CC(C)(C)OC(=O)N/N=C\c1ccc(OC(=O)c2ccco2)cc1 | 12.6 µM (inactive) |
| Cc1cc(C)cc(NC(=O)CCc2ccc(C)o2)c1 | 1.42 µM |
| CCC(C)(C)c1ccc(OCC(=O)Nc2ccncc2)cc1 | 4.38 µM |
| COc1ccccc1NC(=O)C(=O)/C=C(\O)c1ccccc1 | 15.4 µM (inactive) |
| COC12C(COC(N)=O)C3=C(C(=O)C(C)=C(N)C3=O)N1CC1C2N1C (stereo not given) | 0.12 µM |

| Compound | IC50 |
| --- | --- |
| CC(C)[C@H]1CN=C2N(C[C@H](C)NC(=O)CCC3CCCCC3)[C@H](Cc3ccc(O)cc3)CN21 | 19.3 µM (inactive) |
| CCOC(=O)COn1c2c(c3c4no[n+]([O-])c4ccc31)CCCC2 | 1.13 µM |
| CCCOC(=O)c1cc(-c2ccc(C=O)o2)ccc1Cl | 4.94 µM |
| CC(C)c1cc(C(=O)N/N=C/C=C/c2ccccc2)n[nH]1 | 27 µM (inactive) |
| O=C(Nc1ccc(Cl)cc1Cl)c1cccc(N2C(=O)C=CC2=O)c1 | 11.6 µM (inactive) |
| COc1ccc(OC(=O)CCc2c[nH]c3ccccc23)cc1 | 3.37 µM |
| Cc1ccc(S(=O)(=O)Nc2cccc3ncccc23)s1 | 5.34 µM |
| O=[N+]([O-])c1cc([N+](=O)[O-])c2cc3ccccc3nc2c1 | < 0.1 µM |
| O=C(O)c1ccccc1-c1ccccc1C(=O)Nc1nc2ccccc2s1 | 6.29 µM |
| C/C(=N\Nc1ccc(Cl)cc1)c1c(O)cc(C)oc1=O | 3.61 µM |
| CN1CC=C(/C=C/c2ccc(-c3ccccc3)cc2)CC1 | 11.4 µM (inactive) |
| O=C(N/N=C/c1ccc(Br)s1)c1ccncc1 | 0.47 µM |
| O=C(COC(=O)c1cc(Br)ccc1Cl)NC1CCCC1 | 4.84 µM |
| N/C(=N/OC(=O)c1ccccc1Cl)c1ncc([N+](=O)[O-])s1 | 3.15 µM |
| O=C(N/N=C/c1ccc[nH]1)c1ccc2c(c1)OCO2 | 8.98 µM |
| O=C(Nc1sc2c(c1C(=O)O)CCCCC2)c1ccccc1F | 15.6 µM (inactive) |
| Cc1nc([N+](=O)[O-])c(Br)n1Cc1ccccc1 | 14.1 µM (inactive) |
| COc1ccc(C)c2sc(NC(=O)CCS(=O)(=O)c3ccccc3)nc12 | 6 µM |
| O=C(OCc1cccc(F)c1)c1ccc2c(=O)n3c(nc2c1)CCC3 | 8.62 µM |
| Cc1ccc2[nH]c3c(c2c1)CCCC3NCCO (stereo not given) | 13.7 µM (inactive) |
| CCOC(=O)COc1ccc2ccccc2c1/C=C/[N+](=O)[O-] | 2.32 µM |
| O=Cc1ccc(-c2ccc(Cl)cc2Cl)[nH]1 | 17.3 µM (inactive) |
| O=C(Nc1ccc(F)cc1F)c1cc2ccccc2oc1=O | 25.1 µM (inactive) |

| Compound | IC50 |
| --- | --- |
| CC(=O)c1ccc(OCC(=O)Nc2ccc3c(c2)CCC3)cc1 | 12.4 µM (inactive) |
| COc1cc(/C=C2/C(=O)NN(c3cccc(C)c3)C2=O)ccc1OC(=O)c1ccco1 | 5.53 µM |
| CN(C)CC/C=C1\c2cc(Cl)ccc2Sc2cc(F)c(F)cc21 | 20.2 µM (inactive) |
| CSc1ccc(COC(=O)CCS(=O)(=O)c2ccc(C)cc2)cc1 | 19.2 µM (inactive) |
| Cc1ccc(-c2noc(CCCC(=O)Nc3cccnc3)n2)cc1 | 7.61 µM |
| Oc1c(Cl)cc(CN2CCOCC2)c2cccnc12 | 2.53 µM |
| CC(=O)Oc1ccc(N2C(=O)c3cccc4c([N+](=O)[O-])ccc(c34)C2=O)cc1 | 0.37 µM |
| CCCn1c(O)c(N=NC(=O)c2ccco2)c2ccccc21 | 14.2 µM (inactive) |
| COC(=O)CCCCCN1C(=O)/C(=C\c2ccncc2)SC1=S | 3.94 µM |
| Cc1cccc(NC(=O)c2cc3ccccc3oc2=O)c1 | 10.5 µM (inactive) |
| CC1(c2nnc(-c3ccccc3)o2)CC(c2ccc(Cl)cc2)=NO1 (stereo not given) | 1.52 µM |
| Cc1ccc(C(C)NC(=O)c2cc3ccccc3oc2=O)cc1C (stereo not given) | 3.07 µM |
| O=C(C/C=N\OCc1ccc([N+](=O)[O-])cc1)Nc1ccc(Cl)cc1 | 5.29 µM |
| O=C(COC(=O)c1cccc([N+](=O)[O-])c1)NCc1cccs1 | 25.7 µM (inactive) |
| O=C(N=Nc1c(O)[nH]c2ccc(Br)cc12)c1ccccc1-n1cccc1 | 5.94 µM |
| CC(=O)Nc1nc2ccccc2n1Cc1ccc(C)cc1 | 3.21 µM |
| COc1cccc(CNCCc2c[nH]c3ccccc23)c1OCc1ccc(F)cc1 | 16.9 µM (inactive) |
| O=C(NNC1=Nc2ccccc2SC1)c1ccc(F)cc1 | 17.3 µM (inactive) |
| Oc1c(C(c2ccccc2Cl)N2CCCC2)ccc2cccnc12 (stereo not given) | 4.68 µM |
| CCN1CCN(Cc2cc(C(C)(C)C)c(O)c(C(C)(C)C)c2)CC1 | 3.48 µM |
| CC(C)c1nnc(NC(=O)c2cc3cc(Br)ccc3oc2=O)s1 | 4.33 µM |
| CC(C)C1O/C(=N/C(=O)Nc2ccc(Cl)c(Cl)c2)NC1=O (stereo not given) | 4.76 µM |
| CCOc1cccc(/C=N/NC(=O)c2ccc3c(c2)OCCO3)c1O | 1.12 µM |

| Compound | IC50 |
| --- | --- |
| Cc1ccc(NC(=O)CNc2ccc(OC(C)C)cc2)cc1 | 4.11 µM |
| Cc1cc(C)c2nc(/N=C(\N)NC(=O)Nc3ccccc3)nc(C)c2c1 | 13.3 µM (inactive) |
| CCc1cc(C(c2ccncc2)N2CCN(C)CC2)c(NC(=O)c2ccccc2)s1 (stereo not given) | 10.6 µM (inactive) |
| O=C(Cc1ccc(F)cc1)Nc1ccc(Cl)cn1 | 14.2 µM (inactive) |
| COc1cc(OC)nc(-n2ncc(Br)c(Br)c2=O)n1 | 6.07 µM |
| Cc1cc(NC(=O)COC(=O)COc2ccc(C(=O)c3ccccc3)cc2)no1 | 18.3 µM (inactive) |
| COc1ccc(C2(O)CCN(CC(=O)Nc3nc(-c4ccccc4)cs3)CC2)cc1 | 24.2 µM (inactive) |
| O=C(COc1ccc(Br)cc1)Nc1ccc([N+](=O)[O-])cn1 | 6.47 µM |
| CC(=O)CC1(OC(C)=O)C(=O)N(C)c2ccccc21 (stereo not given) | 21.5 µM (inactive) |
| CN1/C(=C\C(=O)COC(=O)C2COc3ccccc3O2)C(C)(C)c2ccccc21 (stereo not given) | 5.79 µM |
| O=C(NC1CCOc2ccccc21)c1ccc(Cl)nc1 (stereo not given) | 1.46 µM |
| CCOC(=O)Cn1c(C)c(Br)c(=O)c2cccc(C)c21 | 3.76 µM |
| Cc1nnc(N/N=C/c2ccc(-c3ccccc3F)o2)n1N | 10.6 µM (inactive) |
| S=C1CN=C(c2ccccc2)c2cc(Cl)ccc2N1 | 8.42 µM |
| CCCCCn1c(=O)c(C(=O)Nc2nc(CC(=O)OCC)cs2)c(O)c2ccccc21 | 2.39 µM |
| O=C(Oc1ccc(/C=N/O)cc1)c1ccccc1Cl | 12.4 µM (inactive) |
| CCn1c(NC(=O)c2ccccc2)nc2ccccc21 | 4.44 µM |
| O=C(CN1CCOCC1)N/N=C/c1ccc(-c2ccc(Br)cc2)o1 | 4.3 µM |
| CCCN(Cc1nnc(-c2ccccc2Cl)o1)C(=O)c1cc([N+](=O)[O-])cc([N+](=O)[O-])c1 | 5.83 µM |
| O=C(Nc1nnc(-c2ccc(Cl)cc2)o1)c1nc2ccccc2s1 | 0.25 µM |
| Oc1ccc(Cl)cc1CNCc1ccc(F)cc1 | 11.1 µM (inactive) |
| O=C(CNC(=O)c1ccccc1Cl)N/N=C/c1ccc([N+](=O)[O-])s1 | 23.5 µM (inactive) |
| Cc1ccc(OCC(=O)N2CCCc3ccccc32)cc1 | 6.25 µM |

— PubChem BioAssay AID488890 (Southern Research Specialized Biocontainment Screening …, 2010)
